Experimental data published in patent US7671061B2, “Methods and compositions for treating pain” (Hydra Biosciences, Inc., priority 2005, dated 2010).

Assays:
hNaV1.2 = hNaV1.2 (Homo sapiens, UniProt Q99250); experiment: hNaV1.2 patch clamp (Qpatch) selectivity; format: cell-based; conditions: Table 2
hERG [1] = molecular target: T1, hERG (Homo sapiens, UniProt Q12809); experiment: in vitro; conditions: selective for TRPA1 over hERG
hTRPA1 [2] = molecular target: T2, hTRPA1 (Homo sapiens, UniProt O75762, K186N); experiment: TRPA1 patch clamp (perforated patch, AITC-activated current); format: cell-based
T2 construct: expressed in transfected cells; host or cells: HEK293/TREx (Invitrogen), induced with tetracycline
Outline: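 HEK293 TREx cells expressing the channel were recorded by amphotericin perforated patch at −40 mV holding, with 400 ms ramps from −120 to +100 mV every 5 s. Current was activated with 5 μM AITC in pH 7.4 external solution, and block of inward and outward current was measured at −80 and +80 mV with AITC still present.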

[3] = Plasma levels / pharmacokinetics in male Sprague-Dawley rat; format: in vivo
Method: Compound 200 plasma levels were determined via HPLC/MS/MS following a single intravenous bolus dose of 0.9 mg/kg, an intraperitoneal dose of 12 mg/kg (suspension), and an oral dose of 12 mg/kg (suspension) in the male Sprague-Dawley rat. […] For intraperitoneal administration, Compound 200 was formulated as a uniform suspension in CMC (carboxymethylcellulose) at a target concentration of 1 mg/mL and administered at a dose volume of 10 mL/kg. For oral administration, Compound 200 was formulated as a uniform suspension in CMC (carboxymethylcellulose), at a target concentration of 1 mg/mL, administered by gavage, at a dose volume of 10 mL/kg, to the conscious, fasted, male Sprague-Dawley rat.

hERG [4] = molecular target: T1, hERG; experiment: hERG patch clamp (Qpatch) selectivity; conditions: hERG IC50 (nM), Table 2
hTRPA1 [5] = molecular target: T2, hTRPA1; experiment: High throughput Ca2+ fluorescence (Fluo4) assay, AITC stimulation; format: cell-based; conditions: Table 2; read-out: hTRPA1 Fluor IC50
Outline: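 Tetracycline-induced HEK293/TREx cells loaded with 1 μM Fluo4/AM for 60 min at room temperature. Compound added for 2 min after a 4-frame baseline, then AITC; fluorescence followed ~3 min.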

hTRPV4 = hTRPV4 (Homo sapiens, UniProt Q9HBA0); experiment: hTRPV4 patch clamp selectivity; format: cell-based; conditions: Table 2
[6] = test system: carrageenan-induced inflammation; experiment: Carrageenan model of acute inflammatory pain (paw volume); format: in vivo, rat; conditions: IP, carrageenan injected paw
Method: In this study, the drug administered was either a TRPA1 inhibitor or the non-steroidal anti-inflammatory diclofenac. Following administration of both carrageenan and drug or vehicle control, paw volume was measured and used to assess decreased inflammation.

Stability in rat plasma = format: in vitro ADME; conditions: 37° C.
Method: Compound 200 was stable in rat plasma for ≧1 hour at 37° C.

[7] = plasma, male Sprague-Dawley rat, intravenous bolus 0.9 mg/kg

T2 sequence (O75762 whole entry K186N): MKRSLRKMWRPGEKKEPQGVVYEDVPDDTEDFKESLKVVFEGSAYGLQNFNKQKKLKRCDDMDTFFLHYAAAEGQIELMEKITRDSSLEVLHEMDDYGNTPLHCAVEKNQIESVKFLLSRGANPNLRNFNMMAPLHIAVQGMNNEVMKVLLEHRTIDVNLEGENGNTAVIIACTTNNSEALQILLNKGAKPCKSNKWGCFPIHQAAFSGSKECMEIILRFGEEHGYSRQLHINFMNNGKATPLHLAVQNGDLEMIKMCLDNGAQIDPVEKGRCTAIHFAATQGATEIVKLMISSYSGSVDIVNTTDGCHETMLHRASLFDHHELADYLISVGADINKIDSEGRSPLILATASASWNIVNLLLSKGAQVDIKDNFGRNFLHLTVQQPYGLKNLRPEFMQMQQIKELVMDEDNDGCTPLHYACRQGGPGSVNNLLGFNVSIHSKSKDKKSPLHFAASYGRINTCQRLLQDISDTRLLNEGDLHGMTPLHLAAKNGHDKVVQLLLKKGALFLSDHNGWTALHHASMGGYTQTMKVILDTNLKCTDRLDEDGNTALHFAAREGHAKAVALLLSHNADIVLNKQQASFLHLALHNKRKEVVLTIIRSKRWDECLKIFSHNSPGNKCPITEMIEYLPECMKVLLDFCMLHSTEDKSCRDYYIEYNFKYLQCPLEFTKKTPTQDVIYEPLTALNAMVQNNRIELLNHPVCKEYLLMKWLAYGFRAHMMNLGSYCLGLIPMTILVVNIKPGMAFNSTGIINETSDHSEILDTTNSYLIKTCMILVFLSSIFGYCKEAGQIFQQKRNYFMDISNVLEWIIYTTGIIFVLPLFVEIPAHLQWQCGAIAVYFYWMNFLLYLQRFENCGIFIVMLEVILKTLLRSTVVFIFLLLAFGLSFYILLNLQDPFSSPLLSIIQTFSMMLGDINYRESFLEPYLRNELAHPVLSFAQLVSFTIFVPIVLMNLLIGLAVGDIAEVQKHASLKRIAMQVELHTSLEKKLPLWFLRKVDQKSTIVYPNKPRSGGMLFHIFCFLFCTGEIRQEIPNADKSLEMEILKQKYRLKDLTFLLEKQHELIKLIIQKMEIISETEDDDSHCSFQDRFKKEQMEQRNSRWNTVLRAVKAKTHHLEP
Chain of hNaV1.2 (Q99250 whole entry): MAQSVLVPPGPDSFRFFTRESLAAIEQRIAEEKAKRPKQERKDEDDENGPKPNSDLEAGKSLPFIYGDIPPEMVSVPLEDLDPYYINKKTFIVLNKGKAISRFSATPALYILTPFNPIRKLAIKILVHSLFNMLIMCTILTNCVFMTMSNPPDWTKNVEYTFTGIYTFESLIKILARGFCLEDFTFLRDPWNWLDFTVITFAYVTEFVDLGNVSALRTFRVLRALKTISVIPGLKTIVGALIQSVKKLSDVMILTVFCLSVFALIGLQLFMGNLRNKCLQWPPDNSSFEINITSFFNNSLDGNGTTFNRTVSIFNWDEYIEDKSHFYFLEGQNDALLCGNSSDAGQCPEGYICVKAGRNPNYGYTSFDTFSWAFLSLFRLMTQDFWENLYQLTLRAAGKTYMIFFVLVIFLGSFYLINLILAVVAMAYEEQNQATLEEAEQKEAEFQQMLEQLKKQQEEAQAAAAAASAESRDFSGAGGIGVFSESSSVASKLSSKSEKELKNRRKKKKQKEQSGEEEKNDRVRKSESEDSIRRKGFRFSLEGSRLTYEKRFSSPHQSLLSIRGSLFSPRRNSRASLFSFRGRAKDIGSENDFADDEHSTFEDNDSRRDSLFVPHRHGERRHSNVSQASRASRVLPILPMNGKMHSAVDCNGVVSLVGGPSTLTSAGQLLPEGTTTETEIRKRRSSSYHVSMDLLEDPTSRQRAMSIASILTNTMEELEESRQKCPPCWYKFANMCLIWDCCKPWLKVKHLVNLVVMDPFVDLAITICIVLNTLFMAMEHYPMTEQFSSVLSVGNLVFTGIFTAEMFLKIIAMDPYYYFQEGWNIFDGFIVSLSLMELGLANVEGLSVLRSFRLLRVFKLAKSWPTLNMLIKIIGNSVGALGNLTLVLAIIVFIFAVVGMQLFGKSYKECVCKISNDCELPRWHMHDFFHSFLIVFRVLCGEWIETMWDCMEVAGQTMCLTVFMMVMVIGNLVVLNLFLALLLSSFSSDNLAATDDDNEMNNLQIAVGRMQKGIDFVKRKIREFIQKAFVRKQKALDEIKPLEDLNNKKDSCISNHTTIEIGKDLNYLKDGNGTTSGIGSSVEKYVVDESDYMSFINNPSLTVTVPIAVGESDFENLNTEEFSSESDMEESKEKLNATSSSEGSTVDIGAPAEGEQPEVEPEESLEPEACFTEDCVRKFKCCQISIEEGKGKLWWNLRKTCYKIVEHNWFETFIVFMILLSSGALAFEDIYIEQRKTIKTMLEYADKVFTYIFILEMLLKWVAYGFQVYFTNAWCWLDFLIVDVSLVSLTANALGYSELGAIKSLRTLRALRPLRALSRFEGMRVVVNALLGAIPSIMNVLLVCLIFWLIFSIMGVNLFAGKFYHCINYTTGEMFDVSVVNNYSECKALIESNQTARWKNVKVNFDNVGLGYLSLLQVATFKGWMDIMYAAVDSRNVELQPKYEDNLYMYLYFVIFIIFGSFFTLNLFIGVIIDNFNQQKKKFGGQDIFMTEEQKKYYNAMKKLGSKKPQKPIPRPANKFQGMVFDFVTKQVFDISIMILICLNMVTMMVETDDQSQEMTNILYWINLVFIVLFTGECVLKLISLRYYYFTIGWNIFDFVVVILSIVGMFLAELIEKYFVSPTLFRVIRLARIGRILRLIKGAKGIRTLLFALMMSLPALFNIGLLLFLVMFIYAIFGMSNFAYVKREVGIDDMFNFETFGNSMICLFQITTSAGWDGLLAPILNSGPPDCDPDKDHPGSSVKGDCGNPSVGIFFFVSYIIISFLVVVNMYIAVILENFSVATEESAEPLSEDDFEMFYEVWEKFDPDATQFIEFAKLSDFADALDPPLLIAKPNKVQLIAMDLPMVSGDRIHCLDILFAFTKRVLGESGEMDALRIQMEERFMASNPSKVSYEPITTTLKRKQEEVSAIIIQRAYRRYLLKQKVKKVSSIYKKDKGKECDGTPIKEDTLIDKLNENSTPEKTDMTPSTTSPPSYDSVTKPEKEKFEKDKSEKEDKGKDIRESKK
T1 sequence (Q12809 whole entry): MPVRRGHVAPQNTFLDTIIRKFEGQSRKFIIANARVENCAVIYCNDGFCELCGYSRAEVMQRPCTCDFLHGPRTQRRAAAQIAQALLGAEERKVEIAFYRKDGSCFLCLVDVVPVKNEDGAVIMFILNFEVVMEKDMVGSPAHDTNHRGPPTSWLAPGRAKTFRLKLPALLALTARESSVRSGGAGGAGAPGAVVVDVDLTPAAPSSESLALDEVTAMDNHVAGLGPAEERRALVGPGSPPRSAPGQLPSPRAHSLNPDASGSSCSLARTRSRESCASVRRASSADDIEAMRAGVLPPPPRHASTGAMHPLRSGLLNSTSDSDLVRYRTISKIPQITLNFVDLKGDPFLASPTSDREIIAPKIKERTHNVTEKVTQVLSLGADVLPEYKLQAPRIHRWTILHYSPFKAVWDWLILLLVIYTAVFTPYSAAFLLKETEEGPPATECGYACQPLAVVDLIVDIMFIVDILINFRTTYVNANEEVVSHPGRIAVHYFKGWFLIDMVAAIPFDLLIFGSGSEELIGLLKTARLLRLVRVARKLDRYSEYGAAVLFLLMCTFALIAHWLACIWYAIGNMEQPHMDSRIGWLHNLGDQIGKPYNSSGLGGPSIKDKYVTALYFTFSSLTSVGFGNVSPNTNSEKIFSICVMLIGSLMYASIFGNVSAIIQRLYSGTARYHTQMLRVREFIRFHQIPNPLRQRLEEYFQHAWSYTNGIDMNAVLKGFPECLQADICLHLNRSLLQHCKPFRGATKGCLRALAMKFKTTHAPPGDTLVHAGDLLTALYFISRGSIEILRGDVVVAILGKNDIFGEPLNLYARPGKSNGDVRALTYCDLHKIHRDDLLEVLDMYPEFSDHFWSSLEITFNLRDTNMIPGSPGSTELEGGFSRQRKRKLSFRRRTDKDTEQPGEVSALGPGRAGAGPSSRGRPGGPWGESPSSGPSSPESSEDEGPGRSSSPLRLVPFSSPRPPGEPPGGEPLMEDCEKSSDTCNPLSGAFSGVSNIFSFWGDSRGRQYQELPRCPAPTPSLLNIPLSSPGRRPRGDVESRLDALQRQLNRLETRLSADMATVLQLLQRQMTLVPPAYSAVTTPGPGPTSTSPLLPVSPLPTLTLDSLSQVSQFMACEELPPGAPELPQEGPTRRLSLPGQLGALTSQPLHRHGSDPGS
Chain of hTRPV4 (Q9HBA0 whole entry): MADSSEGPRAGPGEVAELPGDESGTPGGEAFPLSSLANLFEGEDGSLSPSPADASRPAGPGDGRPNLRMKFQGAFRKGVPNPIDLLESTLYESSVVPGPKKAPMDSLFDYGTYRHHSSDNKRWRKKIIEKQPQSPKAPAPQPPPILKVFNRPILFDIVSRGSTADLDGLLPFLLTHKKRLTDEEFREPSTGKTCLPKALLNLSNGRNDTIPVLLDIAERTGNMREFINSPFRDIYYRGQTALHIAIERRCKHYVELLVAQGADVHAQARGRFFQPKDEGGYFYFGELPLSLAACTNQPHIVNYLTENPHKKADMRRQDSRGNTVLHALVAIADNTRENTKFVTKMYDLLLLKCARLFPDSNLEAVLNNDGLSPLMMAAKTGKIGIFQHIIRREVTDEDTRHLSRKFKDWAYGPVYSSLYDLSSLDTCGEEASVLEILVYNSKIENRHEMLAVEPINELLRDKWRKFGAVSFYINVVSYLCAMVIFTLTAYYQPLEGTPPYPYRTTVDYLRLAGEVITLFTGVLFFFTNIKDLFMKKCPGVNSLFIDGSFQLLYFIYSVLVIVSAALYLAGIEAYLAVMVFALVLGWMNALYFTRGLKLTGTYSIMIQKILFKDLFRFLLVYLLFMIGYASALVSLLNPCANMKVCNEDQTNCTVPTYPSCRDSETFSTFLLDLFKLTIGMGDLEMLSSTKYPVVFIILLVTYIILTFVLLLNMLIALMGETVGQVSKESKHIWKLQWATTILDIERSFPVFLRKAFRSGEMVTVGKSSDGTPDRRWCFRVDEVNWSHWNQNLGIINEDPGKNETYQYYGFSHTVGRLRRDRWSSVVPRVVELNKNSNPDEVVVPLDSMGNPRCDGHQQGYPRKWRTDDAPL

SMILES: CC(C)c1ccc(NC(=O)Cn2cnc3c2c(=O)n(C)c(=O)n3C)cc1 [Compound 200, 2-(1,3-dimethyl-2,6-dioxo-1,2,3,6-tetrahydropurin-7-yl)-N-(4-isopropylphenyl)acetamide]
- selective for TRPA1 over NaV1.2 (hNaV1.2): ≥ 25 fold
- IC50 (hNaV1.2; read-out: hNaV1.2 IC50): ≥ 30 µM
- selectivity ratio (hERG [1]): ≥ 20
- IC50 (hTRPA1 [2]; Table 2, inward current, read-out: hTRPA1 Patch Inwd IC50): ≤ 5 µM
- IC50 (hTRPA1 [2]; stated in Example 4 (1000 nM=355 ng/mL), read-out: IC50 against TRPA1): 1 µM
- bioavailability ([3]; male, Sprague-Dawley, plasma, fasted rat, oral suspension 12 mg/kg): ~8%
- concentration at 45 min ([3]; male, Sprague-Dawley, plasma, rat, oral 12 mg/kg, 45 min): ~0.355 µg/mL
- clearance [3, 7]: 1.62 L/h/kg
- half-life [3, 7]: 32 min
- Vd ([3]; plasma, male Sprague-Dawley rat, intravenous bolus 0.9 mg/kg, read-out: volume of distribution): 1.28 L/kg
- plasma levels ([3]; rat, intraperitoneal 12 mg/kg, 15-60 min): ~0.355 µg/mL
- IC50 (hERG [4]): ≥ 20000 nM
- IC50 (hTRPA1 [5]): ≤ 5 µM
- IC50 (hTRPV4): > 10 µM
- selective for TRPA1 over TRPV4 (hTRPV4): ≥ 5 fold
- paw volume (inflammation) [6]: decreased
- stable in rat plasma (Stability in rat plasma): ≥ 1 h
